What all share (format): cell-based, human
One assay has as its system clonogenic MM cells. Put plainly: In vitro clonogenic growth of MM precursors (summary statements). Particulars: summary statement. From the text: Many agents are active in multiple myeloma (MM), but the majority of patients relapse. […] We further characterized clonogenic MM cells and stained cell lines using the Hoechst side population and Aldefluor assays. […] Furthermore, both the side population and Aldefluor assays were capable of identifying circulating clonotypic memory B cell populations within the peripheral blood of MM patients.
CD138^− precursors or CD138^+ plasma cells were isolated from the RPMI 8226 or NCI-H929 cell lines and treated with each of the two humanized monoclonal antibodies, rituximab or alemtuzumab, and in combination with human complement that strongly enhances their in vitro activity through complement dependent cytoxicity. Neither complement alone nor the monoclonal antibodies with or without complement affected the clonogenic growth of CD138^+ plasma cells that lack the target antigens (FIG. 8B; P>0.3 for all groups compared to the untreated control).
Although stem cells have been identified in an increasing number of human cancers, the clinical relevance and implications of these findings remain unclear. Standard response criteria used to measure the clinical efficacy of anti-cancer treatments primarily reflect changes in disease bulk and activity against mature tumor cells. Since cancer stem cells are a relatively low frequency population in most tumor types, the true inhibition of these cells is likely to be difficult to assess early following treatment, and a prolongation of disease remission would be required to establish such activity. The initial clinical responses induced by dexamethasone, lenalidomide, bortezomib and cyclophosphamide seen as decreased bone marrow plasmacytosis and monoclonal Ig levels in MM likely reflect the activity of these agents against mature MM plasma cells. […] It is well known that the anti-tumor activity of these agents is mediated in part by modulating the interaction between myeloma plasma cells and bone marrow stromal cells.
Our results complement a recent report describing the relative radioresistance of glioblastoma cancer stem cells compared to the differentiated cells that make up the bulk of the tumor mass. The stark biological differences between cancer stem cells and mature tumor cells is likely to be representative of many other malignancies as the clinical pattern of relapse following effective treatment can be seen in most human cancers. Therefore, therapeutic strategies that target the specific biology of cancer stem cells are likely required to prevent the continued production of mature tumor cells and produce sustained remissions. […] Therefore, optimal clinical strategies may require combining agents active against MM plasma cells to decrease tumor burden and alleviate symptoms with those that target MM cancer stem cells to prevent tumor regrowth and relapse.

For assay [1], the system named is CD138neg MM progenitors derived from primary clinical specimens. The assay can be described thus: Clonogenic recovery of CD138neg MM progenitors from primary clinical samples. Particulars: 4 MM patients; FIG. 10C; P>0.2 compared to the untreated control.
In assay [2] the test system is CD138+ plasma cells from the RPMI 8226 and NCI-H929 MM cell lines. The assay can be described thus: Clonogenic growth of CD138+ plasma cells isolated from MM cell lines. The following applies: FIGS. 10A and B, P<0.02 compared to the untreated control.

“Also recorded” adds a separate entry of the source.

Results on 4 compounds are retold here after patent US8748113B2, “Methods for detecting and monitoring circulating cancer stem cells” (The Johns Hopkins University, priority 2007, dated 2014).

Take `Nc1cccc2c1CN(C1CCC(=O)NC1=O)C2=O` (stereo not drawn) [lenalidomide]: the “effect of anti-myeloma agents on CD138neg precursors / clonogenic MM progenitors” value in the assay with clonogenic MM cells is listed as “similarly resistant”; in the assay with clonogenic MM cells (listed as lenadilomide) it was “little effect”. In addition, the “effect on clonogenic MM precursors from patients” value in assay [1] was “not significantly affected”. Also, in assay [2], the “clonogenic growth of CD138+ plasma cells” value was “inhibited”.

Take `CC(C)C[C@H](NC(=O)[C@H](Cc1ccccc1)NC(=O)c1cnccn1)B(O)O` [bortezomib]: the “effect of anti-myeloma agents on CD138neg precursors / clonogenic MM progenitors” value with clonogenic MM cells is “little effect; also recorded: similarly resistant”. Moreover, the “effect on clonogenic MM precursors from patients” value in assay [1] is given as “not significantly affected”. Besides, the “clonogenic growth of CD138+ plasma cells” value in assay [2] was “inhibited”.

Consider “Rituximab: humanized monoclonal antibody that targets the B-cell antigen CD20”, for which the “effect of antibodies on clonogenic MM cells” value with clonogenic MM cells is “inhibit clonogenic MM cells”.

For “alemtuzumab: humanized monoclonal antibody that targets the B-cell antigen CD52”, in the assay on clonogenic MM cells, the “effect of antibodies on clonogenic MM cells” value is reported as “inhibit clonogenic MM cells”.
